Columns and labels:
[1] = biological target: T1, human Cytochrome P 450 isoenzyme 2C19 (Homo sapiens, UniProt P33261); assay: Cytochrome P450 Inhibition (2C19); type: in vitro ADME; settings: baculovirus/insect cell-expressed human isoenzyme; read-out: IC50 CYP 2C19
T1 construct: host or cells: baculovirus/insect cells
Protocol: (§1) The Cytochrome P450 isoenzyme inhibition was performed according to the publication of Crespi et al. (Anal. Biochem., 1997, 248, 188-190) with use of the baculovirus/insect cell-expressed, human Cytochrome P 450 isoenzymes (2C9 and 2C19).

KDR-Kinase (VEGFR-2) = biological target: T2, KDR-Kinase (VEGFR-2) (Homo sapiens, UniProt P35968); assay: KDR Kinase Inhibition; type: biochemical; settings: GST-kinase domain fusion construct of the KDR kinase; poly(Glu4Tyr) substrate, 32P-γATP
T2 construct: GST-kinase domain fusion construct of the KDR kinase; GST
Protocol: Kinase activity was measured with a GST-kinase domain fusion construct of the KDR kinase according to the following protocol to obtain concentration response curves. Components were added into a microtiterplate in the following sequence: 10 μl of inhibitor in threefold final concentration [3% DMSO in buffer (40 mM Tris Cl pH 7.5; 1 mM DTT, 1 mM MnCl2, 10 mM MgCl2, 2.5 Promille Polyethyleneglycol 20000)] and 10 μl of substrate mixture [24 μM ATP, 24 μg/ml poly(Glu4Tyr) in buffer, specific activity approx. 500 cpm/pmol ^32P-γATP]. Reaction was started by adding 10 μl of enzyme preparation diluted appropriately in buffer that contains 10 μM vanadate. After incubation for exactly 10 min the reaction was stopped by adding of 10 μl stop solution (250 mM EDTA). 10 μl of the reaction mixture were transferred to phosphocellulose filters. The filters were washed in 0.1% phosphoric acid, dried before meltilex scintillator was applied (Wallac, Perkin-Elmer) and the radioactivity was counted.

[2] = biological target: T3, human Cytochrome P 450 isoenzyme 2C9 (Homo sapiens, UniProt P11712); assay: Cytochrome P450 Inhibition (2C9); type: in vitro ADME; settings: baculovirus/insect cell-expressed human isoenzyme; read-out: IC50 CYP 2C9
T3 construct: host or cells: baculovirus/insect cells
Protocol: as §1

T1 sequence (P33261 whole entry): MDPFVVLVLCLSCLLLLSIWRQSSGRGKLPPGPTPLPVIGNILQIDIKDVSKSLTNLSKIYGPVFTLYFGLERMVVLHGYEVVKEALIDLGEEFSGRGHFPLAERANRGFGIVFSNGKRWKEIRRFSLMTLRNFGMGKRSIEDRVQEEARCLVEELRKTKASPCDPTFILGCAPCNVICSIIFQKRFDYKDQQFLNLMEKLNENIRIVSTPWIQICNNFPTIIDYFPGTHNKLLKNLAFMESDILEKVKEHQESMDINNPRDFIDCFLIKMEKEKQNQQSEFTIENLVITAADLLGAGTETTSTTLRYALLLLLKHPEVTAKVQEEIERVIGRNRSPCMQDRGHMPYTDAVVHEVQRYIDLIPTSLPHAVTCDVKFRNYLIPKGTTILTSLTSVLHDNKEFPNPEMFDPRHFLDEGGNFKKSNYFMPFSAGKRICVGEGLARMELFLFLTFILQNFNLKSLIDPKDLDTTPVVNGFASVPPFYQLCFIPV
T3 sequence (P11712 whole entry): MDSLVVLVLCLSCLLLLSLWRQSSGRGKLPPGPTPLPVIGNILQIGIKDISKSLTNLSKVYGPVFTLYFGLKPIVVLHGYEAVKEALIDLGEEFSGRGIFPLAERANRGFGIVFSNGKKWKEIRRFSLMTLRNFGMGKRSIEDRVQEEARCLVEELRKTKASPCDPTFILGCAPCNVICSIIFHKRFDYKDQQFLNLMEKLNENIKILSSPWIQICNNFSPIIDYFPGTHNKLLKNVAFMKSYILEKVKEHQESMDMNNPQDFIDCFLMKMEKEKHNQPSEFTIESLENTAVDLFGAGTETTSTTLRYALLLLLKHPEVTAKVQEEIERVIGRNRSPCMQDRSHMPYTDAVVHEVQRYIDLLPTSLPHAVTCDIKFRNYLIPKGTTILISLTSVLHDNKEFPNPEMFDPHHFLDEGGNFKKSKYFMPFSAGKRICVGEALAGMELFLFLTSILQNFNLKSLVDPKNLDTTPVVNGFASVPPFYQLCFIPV
T2 sequence (P35968 834-1162 limits assumed, species assumed): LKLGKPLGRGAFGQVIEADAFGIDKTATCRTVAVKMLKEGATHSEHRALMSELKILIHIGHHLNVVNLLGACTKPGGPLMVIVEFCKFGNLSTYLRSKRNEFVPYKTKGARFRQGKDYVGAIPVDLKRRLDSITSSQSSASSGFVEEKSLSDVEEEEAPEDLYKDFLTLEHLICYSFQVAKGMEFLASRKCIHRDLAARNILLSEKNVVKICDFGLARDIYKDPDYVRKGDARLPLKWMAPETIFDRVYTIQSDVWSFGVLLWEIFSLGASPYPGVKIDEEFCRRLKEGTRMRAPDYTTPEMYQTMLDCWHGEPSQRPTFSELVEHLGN

IC50 [1] [µM] | melting point [°C] | IC50 (KDR-Kinase (VEGFR-2)) [µM] | IC50 [2] [µM] | Compound
> 30 | 205 to 207 | 0.01 | 11.7 | CNC(=O)Nc1cc(CNc2ncccc2C(=O)Nc2ccc3cn(C)nc3c2)ccn1 [Example 1.0, N-(2-methyl-2H-indazol-6-yl)-2-{[2-(3-methyl-ureido)-pyridin-4-ylmethyl]-amino}-nicotinamide]
 | 206 to 207 |  |  | CNC(=O)Nc1cc(CNc2ncccc2C(=O)Nc2cccc(C(F)(F)F)c2)ccn1 [Example 1.1, 2-{[2-(3-methyl-ureido)-pyridin-4-ylmethyl]-amino}-N-(3-trifluoromethyl-phenyl)-nicotinamide]
 | 228 to 229 |  |  | CNC(=O)Nc1cc(CNc2ncccc2C(=O)Nc2ccc3cnn(C)c3c2)ccn1 [Example 1.2, N-(1-methyl-1H-indazol-6-yl)-2-{[2-(3-methyl-ureido)-pyridin-4-ylmethyl]-amino}-nicotinamide]
 | 191 to 192 |  |  | CNC(=O)Nc1cc(CNc2ncccc2C(=O)Nc2cc3ccccc3cn2)ccn1 [Example 1.3, N-isoquinolin-3-yl-2-{[2-(3-methyl-ureido)-pyridin-4-ylmethyl]-amino}-nicotinamide]
 | 219 to 220 |  |  | CNC(=O)Nc1cc(CNc2ncccc2C(=O)Nc2ccc3c(cnn3C)c2)ccn1 [Example 1.4, N-(1-methyl-1H-indazol-5-yl)-2-{[2-(3-methyl-ureido)-pyridin-4-ylmethyl]-amino}-nicotinamide]
> 30 |  | 0.029 | > 30 | Cn1cc2ccc(NC(=O)c3cccnc3NCc3ccnc(NC(=O)N4CCOCC4)c3)cc2n1 [Example 2.0, morpholine-4-carboxylic acid (4-{[3-(2-methyl-2H-indazol-6-ylcarbamoyl)-pyridin-2-ylamino]-methyl}-pyridin-2-yl)-amide]

Source: US7906533B2, “Nicotinamide pyridinureas as vascular endothelial growth factor (VEGF) receptor kinase inhibitors” (Bayer Schering Pharma AG, priority 2004, dated 2011)
